Experiments:
[1] = system: UACC-257 (Melanoma); experiment: NCI-60 screen (SRB, 48 h); conditions: Homo sapiens; for GI50: UACC-257; for IC (TGI): UACC-257, 48 h, read-out: TGI; for CC50: UACC-257, read-out: LC50
[2] = system: SF-268 (CNS cancer); experiment: NCI-60 screen (SRB, 48 h); conditions: Homo sapiens; for GI50: SF-268; for IC (TGI): SF-268, 48 h, read-out: TGI
[3] = system: NCI/ADR-RES (Ovarian cancer); experiment: NCI-60 screen (SRB, 48 h); conditions: Homo sapiens; for IC (TGI): 48 h, read-out: TGI; for CC50: read-out: LC50
[4] = system: OVCAR-3 (Ovarian cancer); conditions: OVCAR-3, 1 dose 10 µM
[5] = system: SK-MEL-28 (Melanoma); experiment: NCI-60 screen (SRB, 48 h); conditions: for GI50 / IC (TGI) / CC50: Homo sapiens; for GI50: SK-MEL-28; for IC (TGI): SK-MEL-28, 48 h, read-out: TGI; for CC50: SK-MEL-28, read-out: LC50
[6] = system: T-47D (Breast cancer); experiment: NCI-60 screen (SRB, 48 h); conditions: Homo sapiens, T47D; for IC (TGI): 48 h, read-out: TGI; for CC50: read-out: LC50
[7] = system: MALME-3M (Melanoma); experiment: NCI-60 screen (SRB, 48 h); conditions: Homo sapiens; for IC (TGI): 48 h, read-out: TGI
[8] = system: K-562 (Leukemia); experiment: NCI-60 screen (SRB, 48 h); conditions: Homo sapiens; for GI50: K562
[9] = system: Prostate cancer subpanel; experiment: NCI-60 screen, subpanel; conditions: Homo sapiens; for IC (TGI): 48 h, read-out: TGI MG_MID; for GI50: read-out: GI50 MG_MID; for CC50: read-out: LC50 MG_MID
[10] = system: KM12 (Colon cancer); experiment: NCI-60 screen (SRB, 48 h); conditions: Homo sapiens; for GI50: KM12; for IC (TGI): KM12, 48 h, read-out: TGI; for CC50: KM12, read-out: LC50
[11] = system: NCI-H522 (NSC lung cancer); experiment: NCI-60 screen (SRB, 48 h); conditions: Homo sapiens; for GI50: NCI-H522; for IC (TGI): NCI-H522, 48 h, read-out: TGI; for CC50: NCI-H522, read-out: LC50
[12] = system: SK-MEL-5 (Melanoma); experiment: NCI-60 screen (SRB, 48 h); conditions: Homo sapiens; for GI50: SK-MEL-5; for IC (TGI): SK-MEL-5, 48 h, read-out: TGI
[13] = system: HT29 (Colon cancer); experiment: NCI-60 screen (SRB, 48 h); conditions: Homo sapiens; for GI50: HT-29; for IC (TGI): HT-29, 48 h, read-out: TGI; for CC50: HT-29, read-out: LC50
[14] = system: EKVX (NSC lung cancer); experiment: NCI-60 screen (SRB, 48 h); conditions: Homo sapiens; for IC (TGI): 48 h, read-out: TGI
[15] = system: MDA-MB-435 (Melanoma); experiment: NCI-60 screen (SRB, 48 h); format: cell-based; conditions: Homo sapiens; for GI50 / CC50: MDA-MB-435; for IC (TGI): MDA-MB-435, 48 h, read-out: TGI; for CC50: read-out: LC50 (the source's name)
[16] = system: RPMI-8226 (Leukemia); experiment: NCI-60 screen (SRB, 48 h); conditions: Homo sapiens; for GI50: RPMI-8226; for IC (TGI): RPMI-8226, 48 h, read-out: TGI
[17] = system: OVCAR-8 (Ovarian cancer); experiment: NCI-60 screen (SRB, 48 h); conditions: Homo sapiens; for GI50: OVCAR-8; for IC (TGI): OVCAR-8, 48 h, read-out: TGI; for CC50: OVCAR-8, read-out: LC50
[18] = system: OVCAR-4 (Ovarian cancer); experiment: NCI-60 screen (SRB, 48 h); format: cell-based; conditions: Homo sapiens; for IC (TGI): OVCAR-4, 48 h; for GI50 / CC50: OVCAR-4; for GI50: read-out: GI50; for CC50: read-out: LC50 (the source's name)
[19] = system: CNS cancer subpanel; experiment: NCI-60 screen, subpanel; conditions: Homo sapiens; for IC (TGI): 48 h, read-out: TGI MG_MID; for GI50: read-out: GI50 MG_MID; for CC50: read-out: LC50 MG_MID
[20] = system: HS 578T (Breast cancer); experiment: NCI-60 screen (SRB, 48 h); conditions: Homo sapiens; for IC (TGI): 48 h, read-out: TGI; for CC50: read-out: LC50
[21] = system: SF-539 (CNS cancer); experiment: NCI-60 screen (SRB, 48 h); conditions: Homo sapiens; for GI50: SF-539; for IC (TGI): SF-539, 48 h, read-out: TGI
[22] = system: 786-0 (Renal cancer); experiment: NCI-60 screen (SRB, 48 h); conditions: Homo sapiens; for GI50: 786-0; for IC (TGI): 786-0, 48 h, read-out: TGI
[23] = system: HL-60(TB) (Leukemia); experiment: NCI-60 screen (SRB, 48 h); format: cell-based; conditions: Homo sapiens
[24] = system: SR (Leukemia); experiment: NCI-60 screen (SRB, 48 h); format: cell-based

In the case of C=C(C)[C@@H]1CCC=C2CC[C@]3(C)[C@H](CC[C@@H]4[C@@]5(C)CCCNC(C)(C)[C@@H]5CC[C@]43C)[C@H]21 [Compound 8], the GI50 [1] is reported as 2.19 µM, the IC (TGI) [1] is reported as 4.29 µM and the CC50 [1] is reported as 8.38 µM. It also gave a GI50 [2] of 1.91 µM, an IC (TGI) [2] of 3.64 µM and a GI50 [3] of 1.98 µM. The IC (TGI) [3] was 3.8 µM, the CC50 [3] was 7.3 µM and the “Growth % of the Most Sensitive Cell Lines” value [4] was −93.30%. For the same compound, the GI50 [5] was 1.81 µM, the IC (TGI) [5] was 3.35 µM and the CC50 [5] was 6.18 µM. For the same compound, the GI50 [6] was 1.72 µM, the IC (TGI) [6] was 3.47 µM and the CC50 [6] was 7 µM. For the same compound, the GI50 [7] was 1.7 µM, the IC (TGI) [7] was 3.46 µM and the GI50 [8] was 0.32 µM. It also gave an IC (TGI) [9] of 3.2 µM, a GI50 [9] of 1.71 µM and a CC50 [9] of 5.97 µM. It also gave a GI50 [10] of 1.93 µM, an IC (TGI) [10] of 3.6 µM and a CC50 [10] of 6.71 µM. For the same compound, the GI50 [11] was 1.93 µM, the IC (TGI) [11] was 3.5 µM and the CC50 [11] was 6.35 µM. For the same compound, the GI50 [12] was 1.7 µM, the IC (TGI) [12] was 3.14 µM and the GI50 [13] was 1.2 µM. The IC (TGI) [13] was 2.58 µM, the CC50 [13] was 5.56 µM and the GI50 [14] was 1.66 µM. The IC (TGI) [14] was 3.21 µM, the GI50 [15] was 1.87 µM and the IC (TGI) [15] was 3.49 µM. It also gave a CC50 [15] of 6.51 µM, a GI50 [16] of 2.26 µM and an IC (TGI) [16] of 4.73 µM. It also gave a GI50 [17] of 1.99 µM, an IC (TGI) [17] of 3.94 µM and a CC50 [17] of 7.79 µM. The IC (TGI) [18] was 3.39 µM, the GI50 [18] was 1.86 µM and the CC50 [18] was 6.17 µM. For the same compound, the IC (TGI) [19] was 3.31 µM, the GI50 [19] was 1.79 µM and the CC50 [19] was 5.97 µM. For the same compound, the GI50 [20] was 1.87 µM, the IC (TGI) [20] was 4.39 µM and the CC50 [20] was 15.9 µM. The GI50 [21] was 1.52 µM, the IC (TGI) [21] was 2.99 µM and the GI50 [22] was 1.76 µM. The IC (TGI) [22] was 3.51 µM.

In the case of CC1(C)CC[C@]2(CO)CC[C@]3(C)C(=CC[C@@H]4[C@@]5(C)CCCNC(C)(C)[C@@H]5CC[C@]43C)[C@@H]2C1 [Compound 3, azepanoerythrodiol], the GI50 [1] is reported as 2.49 µM, the IC (TGI) [1] is reported as 6.47 µM and the CC50 [1] is reported as 27.6 µM. The GI50 [2] was 2.9 µM, the IC (TGI) [2] was 9.77 µM and the CC50 ([2]; SF-268, read-out: LC50) was 65.6 µM. For the same compound, the GI50 [3] was 10.2 µM, the IC (TGI) [3] was 24 µM and the CC50 [3] was 56.3 µM. It also gave a GI50 [23] of 1.95 µM, a CC50 ([23]; read-out: LC50 (the source's name)) of over 100 µM and a GI50 [5] of 1.7 µM. The IC (TGI) [5] was 3.14 µM, the CC50 [5] was 5.78 µM and the “Growth % of the Most Sensitive Cell Lines” value ([5]; SK-MEL-28, 1 dose 10 µM) was −81.53%. The GI50 [6] was 4.08 µM, the IC (TGI) [6] was 16.3 µM and the CC50 [6] was 48.6 µM. The GI50 [7] was 2.02 µM, the IC (TGI) [7] was 3.56 µM and the CC50 ([7]; read-out: LC50) was 6.27 µM. It also gave a GI50 [8] of 0.4 µM, an IC (TGI) ([8]; K562, 48 h, read-out: TGI) of over 100 µM and a CC50 ([8]; K562, read-out: LC50) of over 100 µM. The IC (TGI) [9] was 4.02 µM, the GI50 [9] was 1.89 µM and the CC50 [9] was 8.54 µM. The GI50 [10] was 2.07 µM, the IC (TGI) [10] was 4.26 µM and the CC50 [10] was 8.78 µM. For the same compound, the GI50 [11] was 2.04 µM, the IC (TGI) [11] was 4.19 µM and the CC50 [11] was 8.59 µM. The GI50 [12] was 1.68 µM, the IC (TGI) [12] was 3.14 µM and the CC50 ([12]; SK-MEL-5, read-out: LC50) was 5.86 µM. The GI50 [13] was 1.59 µM, the IC (TGI) [13] was 3.62 µM and the CC50 [13] was 8.23 µM. The GI50 [14] was 4.04 µM, the IC (TGI) [14] was 20.1 µM and the CC50 ([14]; read-out: LC50) was over 100 µM. For the same compound, the GI50 [15] was 1.71 µM, the IC (TGI) [15] was 3.36 µM and the CC50 [15] was 6.59 µM. For the same compound, the GI50 [16] was 2.71 µM, the IC (TGI) [16] was 10.1 µM and the CC50 ([16]; RPMI-8226, read-out: LC50) was over 100 µM. For the same compound, the GI50 [17] was 3.83 µM, the IC (TGI) [17] was 15.6 µM and the CC50 [17] was 54.1 µM. It also gave an IC (TGI) [18] of 17.5 µM, a GI50 [18] of 4.48 µM and a CC50 [18] of 45.2 µM. The IC (TGI) [19] was 4.13 µM, the GI50 [19] was 6.53 µM and the CC50 [19] was 40 µM. The GI50 [20] was 6.16 µM, the IC (TGI) [20] was 24.7 µM and the CC50 [20] was 77.4 µM. For the same compound, the TGI [24] was over 100 µM, the GI50 ([24]; Homo sapiens) was 2.22 µM and the CC50 ([24]; Homo sapiens, read-out: LC50 (the source's name)) was over 100 µM. For the same compound, the GI50 [21] was 11 µM, the IC (TGI) [21] was 2.41 µM and the CC50 ([21]; SF-539, read-out: LC50) was 52.7 µM. For the same compound, the GI50 [22] was 2.25 µM, the IC (TGI) [22] was 4.84 µM and the CC50 ([22]; 786-0, read-out: LC50) was 12.7 µM.

Reference: PMC7914897, “Cytotoxic Potential of a-Azepano- and 3-Amino-3,4-SeCo-Triterpenoids” (International Journal of Molecular Sciences, 2021)
